Assay results published in ChEMBL document CHEMBL1121981, “Synthesis and biological evaluation of a metazocine-containing enkephalinamide. Evidence for nonidentical roles of the tyramine moiety in opiates and opioid peptides” (J Med Chem, 1982).
Active and inactive are the calls of the source. No cut-off for these calls is given here.

Each molecule was assayed against Mu-type opioid receptor (Cavia porcellus) (UniProt P97266) (assay: Mu opioid receptor agonist activity was determined by inhibition of electrically stimulated myenteric plexus in guinea pig ileum). Conditions: not given.
Sequence of Mu-type opioid receptor (Cavia porcellus) (P97266 whole entry): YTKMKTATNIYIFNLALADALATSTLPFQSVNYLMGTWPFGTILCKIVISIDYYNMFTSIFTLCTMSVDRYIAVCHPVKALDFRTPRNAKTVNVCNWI
Assay type: functional, tissue-based
`CC1C2Cc3ccc(O)cc3C1(C)CC(C(N)=O)N2C` (single isomer, unassigned; (-)) [listing 1 of 2 here] was tested, and the Relative potency was 0.009.
For `CC1C2(C)CCN(C)C1(C(N)=O)Cc1ccc(O)cc12` (single isomer, unassigned; (-)) [listing 1 of 2 here], the Relative potency was 0.02.
`CSCC[C@H](NC(=O)[C@H](Cc1ccccc1)NC(=O)CNC(=O)[C@@H](C)NC(=O)[C@@H](N)Cc1ccc(O)cc1)C(N)=O` showed a Relative potency of 329.
`CSCC[C@@H](NC(=O)[C@H](Cc1ccccc1)NC(=O)CNC(=O)CNC(=O)C1CC2(C)c3cc(O)ccc3CC(C2C)N1C)C(N)=O` (some centres not stated) gave a Relative potency of 0.007.

These molecules were tested against Mu-type opioid receptor (Cavia porcellus) (UniProt P97266) (assay: Mu opioid receptor agonist activity was determined by inhibition of electrically stimulated myenteric plexus in guinea pig ileum; Inactive). Conditions: not given.
Assay type: functional, tissue-based
In the case of `CSCC[C@@H](NC(=O)[C@H](Cc1ccccc1)NC(=O)CNC(=O)CNC(=O)C1CC2(C)c3cc(O)ccc3CC(C2C)N1C)C(N)=O` (single isomer, unassigned; (+)), the Relative potency is reported as “inactive”.
With `CC1C2(C)CCN(C)C1(C#N)Cc1ccc(O)cc12` (racemic) the Relative potency was “inactive”.
With `CC1C2Cc3ccc(O)cc3C1(C)CC(C(N)=O)N2C` (single isomer, unassigned; (+)) the Relative potency was “inactive”.
`CSCC[C@@H](NC(=O)[C@H](Cc1ccccc1)NC(=O)CNC(=O)CNC(=O)C12Cc3ccc(O)cc3C(C)(CCN1C)C2C)C(N)=O` (single isomer, unassigned; (+)) was tested, and the Relative potency was “inactive”.
In the case of `CC1C2(C)CCN(C)C1(C(N)=O)Cc1ccc(O)cc12` (configuration not stated), the Relative potency is reported as “inactive”.

These molecules were tested against Mu-type opioid receptor (Cavia porcellus) (UniProt P97266) (assay: Mu opioid receptor agonist activity was determined by inhibition of electrically stimulated myenteric plexus in guinea pig ileum; Inactive, weak antagonism with agonist morphine PA2 of <6). Conditions: filed as antagonist.
Assay type: functional, tissue-based
With `CSCC[C@@H](NC(=O)[C@H](Cc1ccccc1)NC(=O)CNC(=O)CNC(=O)C12Cc3ccc(O)cc3C(C)(CCN1C)C2C)C(N)=O` (single isomer, unassigned; (-)) the Relative potency was “Partial antagonist”.

These molecules were tested against Mu-type opioid receptor (Cavia porcellus, UniProt P97266) (assay: Mu opioid receptor agonist activity as inhibition of electrically stimulated mysenteric plexus in guinea pig ileum). Conditions: not given.
Sequence of Mu-type opioid receptor (P97266 whole entry): as above
Assay type: functional, tissue-based
Molecule `CC1C2(C)CCN(C)C1(C(N)=O)Cc1ccc(O)cc12` (single isomer, unassigned; (-)) [listing 2 of 2 here] has an IC50 of 2820 nM.
Molecule `CSCC[C@H](NC(=O)[C@H](Cc1ccccc1)NC(=O)CNC(=O)[C@@H](C)NC(=O)[C@@H](N)Cc1ccc(O)cc1)C(N)=O` has an IC50 of 17.4 nM.
`C[C@H]1[C@@H]2Cc3ccc(O)cc3[C@]1(C)CCN2C` [METAZOCINE] gave an IC50 of 94 nM.
`CC1C2Cc3ccc(O)cc3C1(C)CC(C(N)=O)N2C` (single isomer, unassigned; (-)) [listing 2 of 2 here] showed an IC50 of 6090 nM.
For `CC1C2Cc3ccc(O)cc3C1(C)CC(C#N)N2C` (single isomer, unassigned; form 2), the IC50 was 510 nM.
`CC1C2Cc3ccc(O)cc3C1(C)CC(C#N)N2C` (single isomer, unassigned; form 1) gave an IC50 of 510 nM.
For `CSCC[C@H](NC(=O)[C@H](Cc1ccccc1)NC(=O)CNC(=O)CNC(=O)C1CC2(C)c3cc(O)ccc3CC(C2C)N1C)C(N)=O` (some centres not stated), the IC50 was 7970 nM.
